In patent publication US6368788B1 (priority 1987, dated 2002):

How the values were obtained:
C. albicans = test: Disseminated candidiasis: mean survival and kidney infection (Study 41B); assay type: in vivo, mice; conditions: for Kidney Infection: greater than 8 logs of C. albicans, day 5
Procedure: Study 41B: Using a standardized inoculum (i.e., 10^8 cells/mL), the LD95 value (=14.9×10^6 cells/animal) was determined by injecting different numbers of C. albicans cells iv into mice and recording deaths at 20 days. L-Glu-L-Trp was administered ip at doses of 1, 10, 100 and 300 μg/kg in either a prophylactic or therapeutic drug regimen (abbreviated PDR or TDR, respectively). Prophylaxis consisted of 3 ip injections on 3 consecutive days, with the last injection being 3 hours before injecting the C. albicans cells iv. Therapy consisted of 10 consecutive daily ip injections starting 24 hours after the iv injection of the C. albicans cells. Mean survival was determined at 10 days, and as an independent monitor for infection, kidneys were removed from nine parallel groups (12 animals each) of infected animals at 5 days and after microbiological isolation the numbers of C. albicans cultures counted.

bone marrow cells = test: Bone marrow and peripheral blood cells in 5-FU immunosuppressed mice; assay type: in vivo, CBA mice
Procedure: The effects of L-Glu-L-Trp on bone marrow hematopoietic activity was investigated in 5-fluorouracil (5-FU) immunosuppressed CBA mice. Mice were treated with a dose schedule of 5-FU determined empirically to be sufficient to decrease the absolute number of bone marrow cells and peripheral blood leukocytes by about 50% on day 10-14. Treatment with L-Glu-L-Trp was initiated on day 10, and 1 μg/kg was administered ip daily on that day and each of the following 4 days. Bone marrow and peripheral blood cell populations were quantified on day 15.

[1] = psoriasis Group 1, after L-Glu-L-Trp Therapy (n = 30)
[2] = psoriasis, after Combination L-Glu-L-Trp Therapy (n = 30)
[3] = bone marrow, 5-FU + 1 μg/kg ip daily 5 days, day 15
[4] = peripheral blood, 5-FU + 1 μg/kg ip daily 5 days, day 15
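Throughout, for Patients with improvement: psoriasis patients, 30 per group, with disease activity tracked through laboratory and clinical measures, set against a group receiving traditional therapy alone.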
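Throughout, for Patients with significant improvement: psoriasis patients, 30 per group, with disease activity tracked through laboratory and clinical measures, set against a group receiving traditional therapy alone.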
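Throughout, for Patients with total recovery: psoriasis patients, 30 per group, with disease activity tracked through laboratory and clinical measures, set against a group receiving traditional therapy alone.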
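Throughout, for Shorter length of hospital stay vs Group 2: psoriasis patients, 30 per group, with disease activity tracked through laboratory and clinical measures, set against a group receiving traditional therapy alone.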

In the case of L-Glu-L-Trp, the “Survival % 6d” value (C. albicans; PDR, 1 μg/kg ip) was 50%, the “Survival % 8d” value (C. albicans; PDR, 1 μg/kg ip) was 20% and the “Survival Mean” value (C. albicans; PDR, 1 μg/kg ip) was 6.2 ± 2.0 days. The “Kidney Infection” value (C. albicans; PDR, 1 μg/kg ip) was 58%, the “Survival % 6d” value (C. albicans; PDR, 10 μg/kg ip) was 60% and the “Survival % 8d” value (C. albicans; PDR, 10 μg/kg ip) was 20%. The “Survival Mean” value (C. albicans; PDR, 10 μg/kg ip) was 6.4 ± 2.2 days, the “Kidney Infection” value (C. albicans; PDR, 10 μg/kg ip) was 58% and the “Survival % 6d” value (C. albicans; PDR, 100 μg/kg ip) was 80%. For the same substance, the “Survival % 8d” value (C. albicans; PDR, 100 μg/kg ip) was 40%, the “Survival Mean” value (C. albicans; PDR, 100 μg/kg ip) was 7.9 ± 1.9 days and the “Kidney Infection” value (C. albicans; PDR, 100 μg/kg ip) was 75%. For the same substance, the “Survival % 6d” value (C. albicans; PDR, 300 μg/kg ip) was 80%, the “Survival % 8d” value (C. albicans; PDR, 300 μg/kg ip) was 50% and the “Survival Mean” value (C. albicans; PDR, 300 μg/kg ip) was 7.8 ± 2.1 days. The “Kidney Infection” value (C. albicans; PDR, 300 μg/kg ip) was 58%, the “Survival % 6d” value (C. albicans; TDR, 1 μg/kg ip) was 60% and the “Survival % 8d” value (C. albicans; TDR, 1 μg/kg ip) was 50%. For the same substance, the “Survival Mean” value (C. albicans; TDR, 1 μg/kg ip) was 7.3 ± 2.7 days, the “Kidney Infection” value (C. albicans; TDR, 1 μg/kg ip) was 67% and the “Survival % 6d” value (C. albicans; TDR, 10 μg/kg ip) was 50%. The “Survival % 8d” value (C. albicans; TDR, 10 μg/kg ip) was 30%, the “Survival Mean” value (C. albicans; TDR, 10 μg/kg ip) was 6.2 ± 2.2 days and the “Kidney Infection” value (C. albicans; TDR, 10 μg/kg ip) was 50%. For the same substance, the “Survival % 6d” value (C. albicans; TDR, 100 μg/kg ip) was 80%, the “Survival % 8d” value (C. albicans; TDR, 100 μg/kg ip) was 50% and the “Survival Mean” value (C. albicans; TDR, 100 μg/kg ip) was 7.8 ± 1.9 days. The “Kidney Infection” value (C. albicans; TDR, 100 μg/kg ip) was 75%, the “Survival % 6d” value (C. albicans; TDR, 300 μg/kg ip) was 80% and the “Survival % 8d” value (C. albicans; TDR, 300 μg/kg ip) was 40%. For the same substance, the “Survival Mean” value (C. albicans; TDR, 300 μg/kg ip) was 7.8 ± 2.1 days, the “Kidney Infection” value (C. albicans; TDR, 300 μg/kg ip) was 67% and the Survival (C. albicans; prophylactic and therapeutic treatments) was “significantly increased the number of animals surviving at days 6 and 8”. For the same substance, the Patients with improvement (10 days) was 7%, the “Patients with significant improvement” value (10 days) was 60% and the “Patients with total recovery” value (10 days) was 33%. For the same substance, the “Shorter length of hospital stay vs Group 2” value (average) was 4.2 days, the “Decrease in erythema of skin eruptions sooner than controls” value (in vivo) was 2.8 days and the “Disappearance of psoriatic rash sooner than controls” value (in vivo) was 7.1 days. For the same substance, the “Earlier recovery of disease activity than conventional therapy” value (in vivo) was 2 to 3 days, the C3 complement [1] was 926 ± 28.4 µg/mL and the Ceruloplasmin [1] was 366 ± 11.4 µg/mL. The “Clotting time (citrated whole blood-recalcified)” value [1] was 141 ± 2.4, the FDP [1] was 23 ± 1.8 µg/mL and the “Fibrinogen Concentration” value [1] was 3.4 ± 0.1 g/L. The “Fibrinolytic Activity” value [1] was 200 ± 2.7 min, the Kaolin-Cephalin clotting time [1] was 58 ± 0.3 and the Orosomucoid [1] was 829 ± 13.2 µg/mL. The PT [1] was 23 ± 0.2, the Prealbumin [1] was 357 ± 3.8 µg/mL and the Thrombotest [1] was 33 ± 0.5 units. The Transferrin [1] was 3.36 ± 0.08 µg/mL, the α2-macroglobulin [1] was 2.5 ± 0.01 and the “Number of Patients Having a Clinical Outcome as: Considerable Improvement” value (psoriasis Group 1, day 8-10) was 18/30. For the same substance, the “Number of Patients Having a Clinical Outcome as: Improvement” value (psoriasis Group 1, day 8-10) was 2/30, the “Number of Patients Having a Clinical Outcome as: No Improvement” value (psoriasis Group 1, day 8-10) was 3/30 and the “Number of Patients Having a Clinical Outcome as: Recovery” value (psoriasis Group 1, day 8-10) was 7/30. The “Patients with Considerable Improvement (%)” value (psoriasis Group 1, day 8-10) was “(60%)”, the “Patients with Improvement (%)” value (psoriasis Group 1, day 8-10) was “(7%)” and the “Patients with No Improvement (%)” value (psoriasis Group 1, day 8-10) was “(10%)”. The “Patients with Recovery (%)” value (psoriasis Group 1, day 8-10) was “(23%)”, the B-Lymphocytes [2] was 0.53 ± 0.02 ×10^9/L and the “B-Lymphocytes % Normal Value” [2] was “(115%)”. The IgA [2] was 138 ± 6.8, the “IgA % Normal Value” [2] was “(140%)” and the IgG [2] was 187 ± 1.9 mg/mL. The “IgG % Normal Value” [2] was “(140%)”, the IgM [2] was 193 ± 9.6 and the “IgM % Normal Value” [2] was “(152%)”. For the same substance, the Leukocytes [2] was 9.0 ± 1.4 ×10^9/L, the “Leukocytes % Normal Value” [2] was “(155%)” and the Lymphocytes [2] was 2.5 ± 0.09 ×10^9/L. For the same substance, the “Lymphocytes % Normal Value” [2] was “(144%)”, the T-Lymphocytes [2] was 0.94 ± 0.07 ×10^9/L and the “T-Lymphocytes % Normal Value” [2] was “(106%)”. The Bone marrow cells (bone marrow cells; 1 μg/kg ip, 5 days) was “an increase in the numbers of myelocytes/neutrophils, stab and segmented neutrophils, and megakaryocytes”, the “Eosinophils (% of Normal Control Value)” value (bone marrow cells; [3]) was “(64%)” and the “Eosinophils: %” value (bone marrow cells; [3]) was 1.1%. The “Eosinophils: Total Cells” value (bone marrow cells; [3]) was 15600 mg⁻¹, the “Erythroblasts (% of Normal Control Value)” value (bone marrow cells; [3]) was “(64%)” and the “Erythroblasts: %” value (bone marrow cells; [3]) was 2.1%. For the same substance, the “Erythroblasts: Total Cells” value (bone marrow cells; [3]) was 29600 mg⁻¹, the “Erythroid cells (% of Normal Control Value)” value (bone marrow cells; [3]) was “(59%)” and the “Erythroid cells: %” value (bone marrow cells; [3]) was 9.7%. The “Lymphocytes (% of Normal Control Value)” value (bone marrow cells; [3]) was “(88%)”, the “Lymphocytes: %” value (bone marrow cells; [3]) was 43.9% and the “Lymphocytes: Total Cells” value (bone marrow cells; [3]) was 618900 mg⁻¹. For the same substance, the “Megakaryocytes (% of Normal Control Value)” value (bone marrow cells; [3]) was “(43%)”, the “Megakaryocytes: %” value (bone marrow cells; [3]) was 0.3% and the “Megakaryocytes: Total Cells” value (bone marrow cells; [3]) was 4200 mg⁻¹. The “Monocytes (% of Normal Control Value)” value (bone marrow cells; [3]) was “(60%)”, the “Monocytes: %” value (bone marrow cells; [3]) was 2.5% and the “Monocytes: Total Cells” value (bone marrow cells; [3]) was 35300 mg⁻¹. For the same substance, the “Myeloblasts (% of Normal Control Value)” value (bone marrow cells; [3]) was “(74%)”, the “Myeloblasts: %” value (bone marrow cells; [3]) was 5.0% and the “Myeloblasts: Total Cells” value (bone marrow cells; [3]) was 70600 mg⁻¹. For the same substance, the “Myelocytes + Neutrophil Metamyelocytes (% of Normal Control Value)” value (bone marrow cells; [3]) was “(40%)”, the “Myelocytes + Neutrophil Metamyelocytes: %” value (bone marrow cells; [3]) was 4.0% and the “Myelocytes + Neutrophil Metamyelocytes: Total Cells” value (bone marrow cells; [3]) was 56400 mg⁻¹. For the same substance, the “Myelokaryocytes (% of Normal Control Value)” value (bone marrow cells; [3]) was “(58%)”, the “Myelokaryocytes: Total Cells” value (bone marrow cells; [3]) was 1.41e+06 mg⁻¹ and the “Non-differentiated blast cells (% of Normal Control Value)” value (bone marrow cells; [3]) was “(64%)”. For the same substance, the “Non-differentiated blast cells: %” value (bone marrow cells; [3]) was 2.2%, the “Non-differentiated blast cells: Total Cells” value (bone marrow cells; [3]) was 31000 mg⁻¹ and the “Promyeloblasts (% of Normal Control Value)” value (bone marrow cells; [3]) was “(74%)”. For the same substance, the “Promyeloblasts: %” value (bone marrow cells; [3]) was 3.6%, the “Promyeloblasts: Total Cells” value (bone marrow cells; [3]) was 50800 mg⁻¹ and the “Reticular cells (% of Normal Control Value)” value (bone marrow cells; [3]) was “(50%)”. For the same substance, the “Reticular cells: %” value (bone marrow cells; [3]) was 0.7%, the “Reticular cells: Total Cells” value (bone marrow cells; [3]) was 9800 mg⁻¹ and the “Stab + Seg. neutrophils (% of Normal Control Value)” value (bone marrow cells; [3]) was “(34%)”. The “Stab + Seg. neutrophils: %” value (bone marrow cells; [3]) was 24.9%, the “Stab + Seg. neutrophils: Total Cells” value (bone marrow cells; [3]) was 351000 mg⁻¹ and the “Blast Cells: %” value (bone marrow cells; [4]) was 0.3%. For the same substance, the “Blast Cells: Total Cells” value (bone marrow cells; [4]) was 1e+07 L⁻¹, the “Eosinophils (% of Normal Control Value)” value (bone marrow cells; [4]) was “(100%)” and the “Eosinophils: %” value (bone marrow cells; [4]) was 0.3%. For the same substance, the “Eosinophils: Total Cells” value (bone marrow cells; [4]) was 1e+07 L⁻¹, the “Lymphocytes (% of Normal Control Value)” value (bone marrow cells; [4]) was “(93%)” and the “Lymphocytes: %” value (bone marrow cells; [4]) was 41.9%. For the same substance, the “Lymphocytes: Total Cells” value (bone marrow cells; [4]) was 2.52e+09 L⁻¹, the “Monocytes (% of Normal Control Value)” value (bone marrow cells; [4]) was “(18%)” and the “Monocytes: %” value (bone marrow cells; [4]) was 2.5%. For the same substance, the “Monocytes: Total Cells” value (bone marrow cells; [4]) was 2e+07 L⁻¹, the “Peripheral Blood Leukocytes (% of Normal Control Value)” value (bone marrow cells; [4]) was “(52%)” and the “Peripheral Blood Leukocytes: Total Cells” value (bone marrow cells; [4]) was 2.98e+09 L⁻¹. The “Segmented Neutrophils (% of Normal Control Value)” value (bone marrow cells; [4]) was “(22%)”, the “Segmented Neutrophils: %” value (bone marrow cells; [4]) was 14.6% and the “Segmented Neutrophils: Total Cells” value (bone marrow cells; [4]) was 4.3e+08 L⁻¹. For the same substance, the “Stab. Neutrophils (% of Normal Control Value)” value (bone marrow cells; [4]) was “(26%)”, the “Stab. Neutrophils: %” value (bone marrow cells; [4]) was 7.9% and the “Stab. Neutrophils: Total Cells” value (bone marrow cells; [4]) was 2.4e+08 L⁻¹.
